Reference: patent US20250340551A1, “SMALL MOLECULE MODULATORS OF STAT6” (Gilead Sciences, Inc., priority 2024, published 2025)

How the values were obtained:
human STAT6 = human STAT6 (Homo sapiens (Human), UniProt P42226); test: Surface plasmon resonance assay (Biacore 8K, binding to immobilized STAT6); details: human STAT6 aa122-658, N-terminal His-tag, CM5 chip, 25° C.; geometric mean; read-out: STAT6 SPR Kd
Method in brief: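 Run at 25° C with His-tagged STAT6 aa122-658 (insect-cell expressed) amine-coupled to a CM5 chip, reference-subtracted, in PBS-P+ with 2% DMSO. Multi-cycle kinetics: 60 sec. contact, up to 300 sec. dissociation. Affinity fitted from late report-point binding isotherms, with Rmax both free and fixed to theoretical 1:1.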

[1] = test system: Eotaxin-3 (CCL26) release in human whole blood stimulated with IL-4; test: Human whole blood eotaxin-3 assay (IL-4 stimulated, Eotaxin-3 release); assay type: cell-based
Method in brief: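 Lithium-heparin blood preincubated 2 h at 37° C with 4-fold compound dilutions (0.5% DMSO, triplicates), then stimulated with 400 pM recombinant human IL-4 for 48 h. Eotaxin-3 in plasma supernatant measured by MSD immunoassay.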

Sequence of human STAT6 (P42226 122-658): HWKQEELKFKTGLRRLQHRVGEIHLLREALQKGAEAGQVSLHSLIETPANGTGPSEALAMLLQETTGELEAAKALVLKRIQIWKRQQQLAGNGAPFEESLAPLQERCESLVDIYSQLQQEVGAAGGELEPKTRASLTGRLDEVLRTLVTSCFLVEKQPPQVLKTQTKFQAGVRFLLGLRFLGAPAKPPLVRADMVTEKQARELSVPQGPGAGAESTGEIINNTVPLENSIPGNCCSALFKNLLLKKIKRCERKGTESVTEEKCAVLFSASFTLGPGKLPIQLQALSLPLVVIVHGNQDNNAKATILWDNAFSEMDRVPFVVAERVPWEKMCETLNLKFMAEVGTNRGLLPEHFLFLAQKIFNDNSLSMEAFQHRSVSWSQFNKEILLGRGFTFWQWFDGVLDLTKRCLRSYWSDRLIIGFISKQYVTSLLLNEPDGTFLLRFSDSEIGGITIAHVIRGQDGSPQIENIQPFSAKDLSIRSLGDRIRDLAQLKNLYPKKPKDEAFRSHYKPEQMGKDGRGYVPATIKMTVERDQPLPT

Molecule	Kd (human STAT6)	EC50 ([1]; Homo sapiens, Hec50, 48 h)	Emax ([1]; Homo sapiens, 48 h)	EC50 ([1]; human whole blood, 400 pM recombinant human IL-4, 48 h, EC50 provided for compounds with >80% Emax, geometric mean)
CNc1ccc(-c2ccnc3c2cc(CN2CC=C(c4ccc(C(=O)N(C)C)cc4C)CC2)n3C)cn1 [Example 1s8, N,N,3-Trimethyl-4-[1-[[1-methyl-4-[6-(methylamino)-3-pyridyl]pyrrolo[2,3-b]pyridin-2-yl]methyl]-3,6-dihydro-2H-pyridin-4-yl]benzamide]	33.8 nM	958 nM	–	–
C[C@@H]1C[C@H](c2ccc(C(=O)N(C)C)cc2)CCN1Cc1cc2c(-c3ccc(N)nc3C#N)ccnc2n1C (single isomer, unassigned) [Example 1q4]	18.4 nM	138 nM	–	–
CNc1ccc(-c2ccnc3c2cc(CN2CCC(c4ccc(C(=O)N(C)C)cc4F)CC2)n3C)cn1 [Example 1s30, 3-Fluoro-N,N-dimethyl-4-(1-((1-methyl-4-(6-(methylamino)pyridin-3-yl)-1H-pyrrolo[2,3-b]pyridin-2-yl)methyl)piperidin-4-yl)benzamide]	22.1 nM	2580 nM	–	–
CNc1ccc(-c2ccnc3c2cc(CN2CC[C@H](c4ccc(C(=O)N(C)C)cc4)[C@H](F)C2)n3C)cn1 (stereo in doubt) [Example 1s28, N,N-dimethyl-4-[(3S,4R)-3-fluoro-1-[[1-methyl-4-[6-(methylamino)-3-pyridyl]pyrrolo[2,3-b]pyridin-2-yl]methyl]-4-piperidyl]benzamide]	20.6 nM	–	76.4%	–
Cc1cc(C(=O)N(C)C)ccc1C1=CCN([C@H](C)c2cc3c(-c4ccc(N)nc4C#N)ccnc3n2C)CC1 [Example 1af45, (R)-4-(1-(1-(4-(6-amino-2-cyanopyridin-3-yl)-1-methyl-1H-pyrrolo[2,3-b]pyridin-2-yl)ethyl)-1,2,3,6-tetrahydropyridin-4-yl)-N,N,3-trimethylbenzamide]	21.6 nM	41 nM	–	–
CNc1ccc(-c2ccnc3c2cc(CN2CCC(c4ccc(C(=O)N(C)C)cc4C)CC2)n3C)nn1 [Example 1p2, N,N,3-Trimethyl-4-[1-[[1-methyl-4-[6-(methylamino)pyridazin-3-yl]pyrrolo[2,3-b]pyridin-2-yl]methyl]-4-piperidyl]benzamide]	70.1 nM	14100 nM	–	–
CN(C)C(=O)c1ccc(C2CCN(Cc3cc4c(-c5ccc(N)cn5)ccnc4n3C)CC2)cc1 [Example 1k66, 4-(1-((4-(5-Aminopyridin-2-yl)-1-methyl-1H-pyrrolo[2,3-b]pyridin-2-yl)methyl)piperidin-4-yl)-N,N-dimethylbenzamide]	18.8 nM	6620 nM	–	–
CNc1ccc(-c2ccnc3c2cc(CN2CCC(c4c(C)cc(C(=O)N(C)C)cc4C)CC2)n3C)cn1 [Example 1s13, N,N,3,5-Tetramethyl-4-[1-[[1-methyl-4-[6-(methylamino)-3-pyridyl]pyrrolo[2,3-b]pyridin-2-yl]methyl]-4-piperidyl]benzamide]	28.8 nM	480 nM	–	–
CN(C)C(=O)c1ccc(C2CCN(Cc3cc4c(-c5ccc(N)nc5)ccnc4n3C)CC2)cc1 [Example 1k3, 4-[1-[[4-(6-Amino-3-pyridyl)-1-methyl-pyrrolo[2,3-b]pyridin-2-yl]methyl]-4-piperidyl]-N,N-dimethyl-benzamide]	11.4 nM	6000 nM	–	–
4-[1-[[4-(6-Amino-2-methyl-3-pyridyl)-1-methyl-pyrrolo[2,3-b]pyridin-2-yl]methyl]-4-piperidyl]-N,N-dimethyl-benzamide [Example 1k12]	20.1 nM	–	–	15700 nM
CN(C)C(=O)c1ccc(C2CCN(Cc3cc4c(-c5ccc(N)nc5C#N)ccnc4n3C)CC2)cc1 [Example 1k43, 4-[1-[[4-(6-Amino-2-cyano-3-pyridyl)-1-methyl-pyrrolo[2,3-b]pyridin-2-yl]methyl]-4-piperidyl]-N,N-dimethyl-benzamide]	31.4 nM	871 nM	–	–
[2H]C([2H])([2H])N(C(=O)c1ccc(C2=CCN([C@H](C)c3cc4c(-c5ccc(N)cn5)ccnc4n3C)CC2)cc1)C([2H])([2H])[2H] [Example 1af46, (R)-4-(1-(1-(4-(5-amino-pyridin-2-yl)-1-methyl-1H-pyrrolo[2,3-b]pyridin-2-yl)ethyl)-1,2,3,6-tetrahydro-pyridin-4-yl)-N,N-bis(methyl-d3)benzamide]	48.3 nM	760 nM	–	–
[2H]C([2H])([2H])N(C(=O)c1ccc(C2CCN([C@H](C)c3cc4c(-c5ccc(N)cn5)ccnc4n3C)CC2)cc1)C([2H])([2H])[2H] [Example 1af36, (R)-4-(1-(1-(4-(5-aminopyridin-2-yl)-1-methyl-1H-pyrrolo[2,3-b]pyridin-2-yl)ethyl)piperidin-4-yl)-N,N-bis(methyl-d3)benzamide]	15.7 nM	404 nM	–	–
C[C@H]1C[C@@H](c2ccc(C(=O)N(C)C)cc2)CCN1Cc1cc2c(-c3ccc(N)nc3C#N)ccnc2n1C (single isomer, unassigned) [Example 1q5]	57.4 nM	651 nM	–	–
Cc1nc(-c2ccnc3c2cc(CN2CCC(c4ccc(C(=O)N(C)C)cc4)CC2)n3C)ccc1N [Example 1k73, 4-[1-[[4-(5-Amino-6-methyl-2-pyridyl)-1-methyl-pyrrolo[2,3-b]pyridin-2-yl]methyl]-4-piperidyl]-N,N-dimethyl-benzamide]	50.3 nM	7610 nM	–	–
CNc1ccc(-c2ccnc3c2cc(CN2CCN(c4ccc(C(=O)N(C)C)cc4C)CC2)n3C)nn1 [Example 1p3, N,N,3-Trimethyl-4-[4-[[1-methyl-4-[6-(methylamino)pyridazin-3-yl]pyrrolo[2,3-b]pyridin-2-yl]methyl]piperazin-1-yl]benzamide]	19.2 nM	232 nM	–	–
C[C@@H]1C[C@H](c2ccc(C(=O)N(C)C)cc2)CCN1Cc1cc2c(-c3ccc(N)cn3)ccnc2n1C (single isomer, unassigned) [Example 1q1]	18.1 nM	370 nM	–	–
CNc1ccc(-c2ccnc3c2cc(CN2CCC(c4ccc(C(=O)N(C)C)cc4)CC2)n3C)[n+]([O-])c1 [Example 1u2, N,N-Dimethyl-4-[1-[[1-methyl-4-[5-(methylamino)-1-oxido-pyridin-1-ium-2-yl]pyrrolo[2,3-b]pyridin-2-yl]methyl]-4-piperidyl]benzamide]	44.9 nM	328 nM	–	–
CNc1ccc(-c2ccnc3c2cc(CN2CC=C(c4ccc(C(=O)N(C)C)cc4C)CC2)n3C)nn1 [Example 1p6, N,N,3-Trimethyl-4-[1-[[1-methyl-4-[6-(methylamino)pyridazin-3-yl]pyrrolo[2,3-b]pyridin-2-yl]methyl]-3,6-dihydro-2H-pyridin-4-yl]benzamide]	22 nM	723 nM	–	–
Cc1cc(-c2ccnc3c2cc(CN2CCC(c4ccc(C(=O)N(C)C)cc4)CC2)n3C)cnc1N [Example 1k11, 4-[1-[[4-(6-Amino-5-methyl-3-pyridyl)-1-methyl-pyrrolo[2,3-b]pyridin-2-yl]methyl]-4-piperidyl]-N,N-dimethyl-benzamide]	30.5 nM	6590 nM	–	–
CNc1ccc(-c2ccnc3c2cc(CN2CCC(c4ccc(C(=O)N(C)C)cc4)CC2)n3S(C)(=O)=O)cn1 [Example 1x1, N,N-Dimethyl-4-[1-[[4-[6-(methylamino)-3-pyridyl]-1-methylsulfonyl-pyrrolo[2,3-b]pyridin-2-yl]methyl]-4-piperidyl]benzamide]	29.5 nM	1110 nM	–	–
COc1nc(N)ccc1-c1ccnc2c1cc(CN1CCC(c3ccc(C(=O)N(C)C)cc3)CC1)n2C [Example 1k22, 4-[1-[[4-(6-Amino-2-methoxy-3-pyridyl)-1-methyl-pyrrolo[2,3-b]pyridin-2-yl]methyl]-4-piperidyl]-N,N-dimethyl-benzamide]	22.3 nM	1490 nM	–	–
CNc1ccc(-c2ccnc3c2cc(CN2CCN(c4ccc(C(=O)N(C)C)cc4)CC2)n3C)nn1 [Example 1p1, N,N-Dimethyl-4-[4-[[1-methyl-4-[6-(methylamino)pyridazin-3-yl]pyrrolo[2,3-b]pyridin-2-yl]methyl]piperazin-1-yl]benzamide]	329 nM	76000 nM	–	–
C[C@H](c1cc2c(-c3ccc(N)nc3)ccnc2n1C)N1CCC(c2ccc(C(=O)N(C)C)cc2)CC1 [Example 1af12, (R)-4-(1-(1-(4-(6-aminopyridin-3-yl)-1-methyl-1H-pyrrolo[2,3-b]pyridin-2-yl)ethyl)piperidin-4-yl)-N,N-dimethylbenzamide]	12.9 nM	246 nM	–	–
[2H]C([2H])([2H])N(C(=O)c1ccc(C2CCN([C@@H](C)c3cc4c(-c5ccc(N)nc5C#N)ccnc4n3C)CC2)c(C)c1)C([2H])([2H])[2H] [Example 1af37, (S)-4-(1-(1-(4-(6-Amino-2-cyanopyridin-3-yl)-1-methyl-1H-pyrrolo[2,3-b]pyridin-2-yl)ethyl)piperidin-4-yl)-3-methyl-N,N-bis(methyl-d3)benzamide]	57.7 nM	699 nM	–	–
CNc1ccc(-c2ccnc3c2cc([C@@H](C)N2CCC(c4ccc(C(=O)N(C)C)cc4)CC2)n3C)c(C#N)n1 [Example 1af40, (R)-4-(1-(1-(4-(2-cyano-6-(methyl-amino)pyridin-3-yl)-1-methyl-1H-pyrrolo[2,3-b]pyridin-2-yl)ethyl)piperidin-4-yl)-N,N-dimethylbenzamide]	2190 nM	44400 nM	–	–
CNc1ccc(-c2ccnc3c2cc(CN2CC=C(c4c(C)cc(C(=O)N(C)C)cc4C)CC2)n3C)nn1 [Example 1p10, N,N,3,5-Tetramethyl-4-[1-[[1-methyl-4-[6-(methylamino)pyridazin-3-yl]pyrrolo[2,3-b]pyridin-2-yl]methyl]-3,6-dihydro-2H-pyridin-4-yl]benzamide]	–	239 nM	–	–
